From patent US5010076A, “1,7-fused 1H-indole-2-carboxylic acid-N-(1,4-benzodiazepin-3-yl)amides” (Kali-Chemie Pharma GmbH, priority 1989, dated 1991)

Assays:
[1] = system: CCK-induced disturbance of stomach emptying; experiment: effect of test substances on CCK-induced disturbances of emptying of the stomach (charcoal transport into duodenum); type: in vivo, mouse (female NMRI)
Method: Doses of CCK lead to substantial blockade of the transpyloric transport of chyme from the stomach into the duodenum. The ability of the test substances to eliminate this blocking effect of CCK was investigated.
Female NMRI mice having body weights of 20-25 g were used in groups of ten animals each. […] A control group received only the Tylose® solution or the solution containing the solubilizer polyethylene glycol in each case. 60 minutes later the animals were given a subcutaneous injection of 80 Ig/kg CCK-8. After a further 5 minutes the animals were each orally administered 0.3 ml of a charcoal suspension (5% charcoal in 2% strength Tylose solution). The mice were sacrificed 5 minutes later and subsequently dissected. They were examined to find whether charcoal suspension had advanced into the duodenum.
The percentage of animals in which the CCK effect was eliminated and charcoal suspension was found in the duodenum after administration of the test substances was determined.

[2] = target: T1, peripheral CCK receptors (pancreas) (Rattus norvegicus, UniProt P30551); experiment: peripheral CCK receptor binding affinity on rat pancreas homogenate (inhibition of 3[H]-CCK-8 binding); design: species or system rat (male Wistar); conditions: 0.3 nM 3[H]-CCK-8, 90 min, 25° C., pH 7.4, calculated from IC50 by Cheng-Prusoff; for Ki: read-out: In vitro binding to peripheral CCK receptors (pancreas) pKi values (converted)
T1 construct: Whole pancreas glands from male Wistar rats with a body weight of 150-300 g; from tissue; host or cells: whole pancreas glands of male Wistar rats, washed homogenate
T1 sequence (P30551 1-444): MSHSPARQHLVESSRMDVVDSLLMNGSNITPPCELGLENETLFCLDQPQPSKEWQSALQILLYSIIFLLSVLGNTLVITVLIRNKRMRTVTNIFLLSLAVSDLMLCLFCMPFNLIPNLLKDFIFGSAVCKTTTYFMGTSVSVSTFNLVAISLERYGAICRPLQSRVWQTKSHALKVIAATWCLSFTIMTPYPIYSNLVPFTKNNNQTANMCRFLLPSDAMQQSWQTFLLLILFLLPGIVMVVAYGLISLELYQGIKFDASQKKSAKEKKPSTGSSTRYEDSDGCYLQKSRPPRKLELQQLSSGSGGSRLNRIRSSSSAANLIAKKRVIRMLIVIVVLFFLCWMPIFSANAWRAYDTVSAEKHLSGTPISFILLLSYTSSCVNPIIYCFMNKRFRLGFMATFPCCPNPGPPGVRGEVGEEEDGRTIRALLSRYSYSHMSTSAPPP
Method: The affinity of the compounds of formula I for peripheral CCK receptors was measured in vitro on rat pancreas homogenate. The inhibition of the binding of the physiologically relevant octopeptide CCK-8 to peripheral CCK receptors by the test substances was determined.
The receptor binding studies were carried out by a modification of the method of van Dijk et al. (J. Neuroscience 4 (1984), 1021-1033), using soya bean trypsin inhibitor (=SBTI) as protease inhibitor. ^3 [H]-CCK-8, code TRK 775, from Amersham Int., having a specific activity of 60-90 Ci/mmol, was used as tritium-labelled CCK-8.
Whole pancreas glands from male Wistar rats with a body weight of 150-300 g, which had been sacrificed by decapitation, were freed of fatty tissue and homogenized for 15 seconds in a 50-fold volume of an ice-cold test buffer solution (10 mmol 2-[4-(2-hydroxyethyl)-piperazin-1-yl]-ethanesulfonic acid (=HEPES), 130 mmol sodium chloride, 5 mmol magnesium chloride, 0.02% bacitracins, 0.01% SBTI, pH 7.4) with a Kinematica Polytron type homogenizer. The homogenates were then centrifuged at 48,000 g for 10 minutes. This washing method was repeated. After the last centrifugation, the residue which was obtained each time in the form of a pellet was suspended in a 550-fold volume of the test buffer solution and immediately used for the measurement.
For the binding test, 500 μl of the tissue homogenate were incubated with 50 μl of test buffer solution or 50 μl of a solution of the compound to be investigated and with 50 μl of a ^3 [H]-CCK-8 solution (final concentration 0.3 nM). The non-specific binding was assumed to be 0.1 μmol CCK-8. The incubation lasted 90 minutes at 25° C. All the compounds were measured 3 times at each of several concentrations.
Aqueous solutions were employed as test substance solutions and were prepared by appropriate dilution of 60×10^-4 molar aqueous stock solutions. Test substances which are sparingly soluble in water were first dissolved in 96% ethanol, and this solution was diluted with sufficient water for the ethanol concentration not to exceed 1.6% by volume in the solution to be tested.
Bound and free ^3 [H]-CCK-8 were separated by filtration through glass fiber filters. The filters were washed twice with 3 ml of HEPES solution each time and then placed in the scintillation solution (SAVE scintillation solution from Packard) in the dark overnight and counted in a Packard TriCarb 1500™liquid scintillation counter. The IC50 of the respective test substance was determined to be that concentration which caused a 50% inhibition of the specific binding of tritiated CCK-8 to the receptors. From this, the corresponding pKi value was calculated using the Cheng-Prusoff equation. […]

[3] = determination of the minimum toxic dose; type: in vivo, mouse (male); conditions: mouse
Method: Male mice weighing 20-25 g were given maximum oral doses of 300 mg/kg of the test substance. The animals were observed carefully for three hours for symptoms of toxicity. In addition, all symptoms and deaths were recorded for a period of 24 hours after administration. Concomitant symptoms were likewise observed and recorded. If death or serious symptoms of toxicity were observed, further mice were given increasingly lower doses. The lowest dose which caused death or serious symptoms of toxicity is indicated in the following Table A as the minimum toxic dose.

[4] = dose 1.0 μmol/kg mouse oral, CCK-8 s.c. 60 min later
[5] = dose 10 μmol/kg mouse oral, CCK-8 s.c. 60 min later
[6] = oral, lowest dose causing death or serious symptoms of toxicity, max 300 mg/kg, 24 h
[7] = dose 1.0* μmol/kg mouse oral, * = administered in solution containing solubilizer (PEG 400)

With CN1C(=O)C(NC(=O)c2cc3cccc4c3n2CCC4)N=C(C2CCCCC2)c2ccccc21 (centres unmarked) [Example 4, 3-[(4H-pyrrolo[3,2,1-ij]-5,6-dihydroquinoline-2-carbonyl)-amino]-1-methyl-2-oxo-5-cyclohexyl-1H-2,3-dihydro-1,4-benzodiazepine] as the compound, how does the “% of Animals in which the CCK Effect was Eliminated” value [1, 4] read?
The value was 45%.

And the Ki [2]?
The Ki was 2.51 nM.

And the Minimum toxic dose ([3]; in vivo, 1440 min)?
The Minimum toxic dose was > 300 mg/kg.

What does the source list for CN1C(=O)C(NC(=O)c2cc3cc(F)cc4c3n2CCC4)N=C(c2ccccc2)c2ccccc21 (centres unmarked) [Example 5, 3-[(8-fluoro-4H-pyrrolo[3,2,1-ij]-5,6-dihydroquinoline-2-carbonyl)-amino]-2-oxo-1-methyl-5-phenyl-1H-2,3-dihydro-1,4-benzodiazepine]?
% of Animals in which the CCK Effect was Eliminated [1, 5]: 75%; Ki [2]: 1.45 nM; Minimum toxic dose [3, 6]: > 300 mg/kg

For Cc1ccc2c(c1)C(c1cccs1)=NC(NC(=O)c1cc3cccc4c3n1CCC4)C(=O)N2C (centres unmarked) [Example 8, 3-[(4H-Pyrrolo[3,2,1-ij]-5,6-dihydroquinoline-2-carbonyl)-amino]-1,7-dimethyl-2-oxo-5-(2-thienyl)-1H-2,3-dihydro-1,4-benzodiazepine], which Ki [2] is on record?
Its Ki is 9.12 nM.

Which results are given for Cc1ccc2c(c1)C(c1ccccc1F)=NC(NC(=O)c1cc3cccc4c3n1CCC4)C(=O)N2C (centres unmarked) [Example 10]?
% of Animals in which the CCK Effect was Eliminated ([1]; dose 0.1 μmol/kg mouse oral, CCK-8 s.c. 60 min later): 40%; In vitro binding to peripheral CCK receptors (pancreas) pKi values [2]: 8.75; Minimum toxic dose [3, 6]: 300 mg/kg

Which Ki [2] does the source give for CN1C(=O)C(NC(=O)c2cc3cccc4c3n2CCC4)N=C(c2ccc(F)cc2F)c2ccccc21 (centres unmarked) [Example 11] here?
The Ki was 2.4 nM.

What about the Minimum toxic dose [3, 6] of the same compound?
The Minimum toxic dose was 300 mg/kg.

Which results are given for COc1ccc2c(c1)N(C)C(=O)C(NC(=O)c1cc3cccc4c3n1CCC4)N=C2c1c(F)cccc1F (centres unmarked) [Example 13]?
% of Animals in which the CCK Effect was Eliminated [1, 5]: 83%; % of Animals in which the CCK Effect was Eliminated [1, 7]: 100%; Ki [2]: 1 nM; Minimum toxic dose [3, 6]: > 300 mg/kg

What does the source list for COc1ccc2c(c1)N(C)C(=O)C(NC(=O)c1cc3cccc4c3n1CCC4)N=C2c1c(F)cccc1OCCC(C)C (centres unmarked) [Example 17]?
% of Animals in which the CCK Effect was Eliminated [1, 7]: 50%; Ki [2]: 10 nM

For Cc1ccc2c(c1)C(c1ccccc1)=NC(NC(=O)c1cc3cccc4c3n1CCC4)C(=O)N2C (centres unmarked) [Example 18], which Ki [2] is on record?
Its Ki is 1.17 nM.

What about the Minimum toxic dose [3, 6] of the same compound?
The Minimum toxic dose was > 300 mg/kg.

Which results are given for CN1C(=O)C(NC(=O)c2cc3cccc4c3n2CCC4)N=C(c2ccccc2F)c2ccccc21 (centres unmarked) [Example 22]?
Ki [2]: 0.912 nM; Minimum toxic dose [3, 6]: > 300 mg/kg

Which Ki [2] does the source give for O=C(NC1N=C(c2ccccc2)c2ccccc2N(CC2CC2)C1=O)c1cc2cccc3c2n1CCC3 (centres unmarked) [Example 23] here?
The Ki was 10 nM.

What about the Minimum toxic dose [3, 6] of the same compound?
The Minimum toxic dose was > 300 mg/kg.

With CC(C)N1C(=O)C(NC(=O)c2cc3cccc4c3n2CCC4)N=C(c2ccccc2)c2ccccc21 (centres unmarked) [Example 25] as the compound, how does the Ki [2] read?
The Ki was 24 nM.

What about the Minimum toxic dose [3, 6] of the same compound?
The Minimum toxic dose was > 300 mg/kg.

With CN1C(=O)C(NC(=O)c2cc3cc(F)cc4c3n2CCC4)N=C(c2ccccc2)c2cc(Cl)ccc21 (centres unmarked) [Example 26] as the compound, how does the Ki [2] read?
Its Ki is 6.17 nM.

For Cc1ccc2c(c1)C(c1ccc(Cl)c(Cl)c1)=NC(NC(=O)c1cc3cccc4c3n1CCC4)C(=O)N2C (centres unmarked) [Example 27], which “% of Animals in which the CCK Effect was Eliminated” value [1, 4] is on record?
Its value is 40%.

Which results are given for Cc1ccc(C2=NC(NC(=O)c3cc4cccc5c4n3CCC5)C(=O)N(C)c3ccccc32)cc1 (centres unmarked) [Example 30]?
Ki [2]: 2.34 nM; Minimum toxic dose [3, 6]: 300 mg/kg

Which Ki [2] does the source give for CN1C(=O)C(NC(=O)c2cc3cccc4c3n2CCO4)N=C(c2ccccc2)c2ccccc21 (centres unmarked) [Example 37] here?
The Ki was 0.646 nM.

For CN1C(=O)C(NC(=O)c2cc3cccc4c3n2CCS4)N=C(c2ccccc2)c2ccccc21 (centres unmarked) [Example 38], which Ki [2] is on record?
The Ki was 0.977 nM.
